Laboratory results from patent publication US12139492B2 (Endotarget Inc., priority 2021, dated 2024).

What was measured:
Mino cells = test: Antiproliferative effect, MTS cell viability assay, Mino cells; format: cell-based; details: Homo sapiens, MINO, Mino mantle cell lymphoma cells; read-out: IC50 (anti-proliferation) Mino cells
Method in brief: (§1)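 Cells were exposed to compound at 0, 0.001, 0.01, 0.1, 1 and 10 μM for 72 h. Viability was then measured by MTS assay, reading formazan produced by metabolically active cells as absorbance at 490 nm.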

JeKo-1 cells = test: Antiproliferative effect, MTS cell viability assay, JeKo-1 cells; format: cell-based; details: Homo sapiens; JeKo-1 mantle cell lymphoma cells; read-out: IC50 (anti-proliferation) JeKO-1 cells
Method in brief: as §1

BTK = BTK (Homo sapiens, UniProt Q06187); test: Degradation of BTK protein in Namalwa cells (Western blot; DC50, Dmax); details: for DC50: read-out: DC50 (BTK degradation), concentration giving 50% reduction of BTK expression level, cell line not given; for Dmax: read-out: Dmax (BTK degradation)
BTK, sequence (Q06187 whole entry): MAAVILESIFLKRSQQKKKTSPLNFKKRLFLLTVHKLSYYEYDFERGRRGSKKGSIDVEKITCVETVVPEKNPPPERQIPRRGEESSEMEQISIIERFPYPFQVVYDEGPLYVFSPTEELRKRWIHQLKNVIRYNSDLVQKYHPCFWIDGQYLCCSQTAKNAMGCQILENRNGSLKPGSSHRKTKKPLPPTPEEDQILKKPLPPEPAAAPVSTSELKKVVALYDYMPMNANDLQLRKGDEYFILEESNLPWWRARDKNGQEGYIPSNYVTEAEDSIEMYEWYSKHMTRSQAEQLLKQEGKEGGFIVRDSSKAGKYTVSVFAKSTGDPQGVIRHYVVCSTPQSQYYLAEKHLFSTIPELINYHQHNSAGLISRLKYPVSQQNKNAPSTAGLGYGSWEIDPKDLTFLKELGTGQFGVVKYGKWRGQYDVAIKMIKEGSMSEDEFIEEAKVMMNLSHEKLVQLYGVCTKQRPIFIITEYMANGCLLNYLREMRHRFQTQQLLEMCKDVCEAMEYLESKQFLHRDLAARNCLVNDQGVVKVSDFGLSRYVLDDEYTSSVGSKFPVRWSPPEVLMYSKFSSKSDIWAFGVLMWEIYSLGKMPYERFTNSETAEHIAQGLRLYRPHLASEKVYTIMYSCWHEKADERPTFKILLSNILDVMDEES

| SMILES | IC50 (Mino cells) [nM] | IC50 (JeKo-1 cells) [nM] | DC50 (BTK) [nM] | Dmax (BTK) [%] |
| --- | --- | --- | --- | --- |
| Nc1ncnc2c1c(-c1ccc(Oc3ccccc3)cc1)nn2C1CCN(CCN2CC(N3CCN(c4ccc5c(c4)C(=O)N(C4CCC(=O)NC4=O)C5=O)CC3)C2)CC1 (centres unmarked) [Compound 463, 5-(4-(1-(2-(4-(4-amino-3-(4-phenoxyphenyl)-1H-pyrazolo[3,4-d]pyrimidin-1-yl)piperidin-1-yl)ethyl)azetidin-3-yl)piperazin-1-yl)-2-(2,6-dioxopiperidin-3-yl)isoindoline-1,3-dione] | < 1000 | < 1000 | 10 to 50 | > 90 |
| Nc1ncnc2c1c(-c1ccc(Oc3ccccc3)cc1)cn2C1CCN(CCN2CC(N3CCN(c4ccc5c(c4)CN(C4CCC(=O)NC4=O)C5=O)CC3)C2)CC1 (centres unmarked) [Compound 464, 3-(5-(4-(1-(2-(4-(4-amino-5-(4-phenoxyphenyl)-7H-pyrrolo[2,3-d]pyrimidin-7-yl)piperidin-1-yl)ethyl)azetidin-3-yl)piperazin-1-yl)-1-oxoisoindolin-2-yl)piperidine-2,6-dione] | 1000 to 10000 | 1000 to 10000 | 10 to 50 | > 75 |
| Nc1ncnc2c1c(-c1ccc(Oc3ccccc3)cc1)nn2C1CCN(CCN2CCN(CCSc3ccc4c(c3)C(=O)N(C3CCC(=O)NC3=O)C4=O)CC2)CC1 (centres unmarked) [Compound 465, 5-((2-(4-(2-(4-(4-amino-3-(4-phenoxyphenyl)-1H-pyrazolo(3,4-d)pyrimidin-1-yl)piperidin-1-yl)ethyl)piperazin-1-yl)ethyl)thio)-2-(2,6-dioxopiperidin-3-yl)isoindoline-1,3-dione] | 1000 to 10000 | 1000 to 10000 | 10 to 50 | > 90 |
| Nc1ncnc2c1c(-c1ccc(Oc3ccccc3)cc1)nn2C1CCN(CCN2CCN(CCSc3ccc4c(c3)CN(C3CCC(=O)NC3=O)C4=O)CC2)CC1 (centres unmarked) [Compound 466, 3-(5-((2-(4-(2-(4-(4-amino-3-(4-phenoxyphenyl)-1H-pyrazolo[3,4-d]pyrimidin-1-yl)piperidin-1-yl)ethyl)piperazin-1-yl)ethyl)thio)-1-oxoisoindolin-2-yl)piperidine-2,6-dione] | > 10000 | > 10000 | > 50 | > 50 |
| Nc1ncnc2c1c(-c1ccc(Oc3ccccc3)cc1)nn2C1CCN(CCN2CCN(CCCSc3ccc4c(c3)C(=O)N(C3CCC(=O)NC3=O)C4=O)CC2)CC1 (centres unmarked) [Compound 467, 5-((3-(4-(2-(4-(4-amino-3-(4-phenoxyphenyl)-1H-pyrazolo[3,4-d]pyrimidin-1-yl)piperidin-1-yl)ethyl)piperazin-1-yl)propyl)thio)-2-(2,6-dioxopiperidin-3-yl)isoindoline-1,3-dione] | 1000 to 10000 | 1000 to 10000 | 10 to 50 | > 90 |
| Nc1ncnc2c1c(-c1ccc(Oc3ccccc3)cc1)nn2C1CCN(CCN2CCN(CCCSc3ccc4c(c3)CN(C3CCC(=O)NC3=O)C4=O)CC2)CC1 (centres unmarked) [Compound 468] | 1000 to 10000 | 1000 to 10000 | < 10 | > 90 |
| Nc1ncnc2c1c(-c1ccc(Oc3ccccc3)cc1)nn2C1CCN(CCN2CCC(CSc3ccc4c(c3)C(=O)N(C3CCC(=O)NC3=O)C4=O)CC2)CC1 (centres unmarked) [Compound 469, 5-(((1-(2-(4-(4-amino-3-(4-phenoxyphenyl)-1H-pyrazolo[3,4-d]pyrimidin-1-yl)piperidin-1-yl)ethyl)piperidin-4-yl)methyl)thio)-2-(2,6-dioxopiperidin-3-yl)isoindoline-1,3-dione] | 1000 to 10000 | 1000 to 10000 | < 10 | > 90 |
| Nc1ncnc2c1c(-c1ccc(Oc3ccccc3)cc1)nn2C1CCN(CCN2CCC(CSc3ccc4c(c3)CN(C3CCC(=O)NC3=O)C4=O)CC2)CC1 (centres unmarked) [Compound 470, 3-(5-(((1-(2-(4-(4-amino-3-(4-phenoxyphenyl)-1H-pyrazolo[3,4-d]pyrimidin-1-yl)piperidin-1-yl)ethyl)piperidin-4-yl)methyl)thio)-1-oxoisoindolin-2-yl)piperidine-2,6-dione] | < 1000 | 1000 to 10000 | < 10 | > 90 |
